Test results published in US20240199546A1, “INHIBITORS OF SOLUTE CARRIER FAMILY 6A MEMBER 19 (SLC6A19) AND METHODS OF USE THEREOF” (Maze Therapeutics, Inc., priority 2022, published 2024).

Key:
[1] = target: T1, human SLC6A19 and TMEM27 (Homo sapiens, UniProt Q695T7); experiment: 13C6,15N-isoleucine uptake in CHO cells with doxycycline-inducible expression of human SLC6A19 and TMEM27, RapidFire mass spectrometry (Example B-2); type: cell-based; details: read-out: SLC6A19_RapidFire Uptake Assay IC50
T1 construct: expressed in transfected cells
T1 sequence (Q695T7 1-634): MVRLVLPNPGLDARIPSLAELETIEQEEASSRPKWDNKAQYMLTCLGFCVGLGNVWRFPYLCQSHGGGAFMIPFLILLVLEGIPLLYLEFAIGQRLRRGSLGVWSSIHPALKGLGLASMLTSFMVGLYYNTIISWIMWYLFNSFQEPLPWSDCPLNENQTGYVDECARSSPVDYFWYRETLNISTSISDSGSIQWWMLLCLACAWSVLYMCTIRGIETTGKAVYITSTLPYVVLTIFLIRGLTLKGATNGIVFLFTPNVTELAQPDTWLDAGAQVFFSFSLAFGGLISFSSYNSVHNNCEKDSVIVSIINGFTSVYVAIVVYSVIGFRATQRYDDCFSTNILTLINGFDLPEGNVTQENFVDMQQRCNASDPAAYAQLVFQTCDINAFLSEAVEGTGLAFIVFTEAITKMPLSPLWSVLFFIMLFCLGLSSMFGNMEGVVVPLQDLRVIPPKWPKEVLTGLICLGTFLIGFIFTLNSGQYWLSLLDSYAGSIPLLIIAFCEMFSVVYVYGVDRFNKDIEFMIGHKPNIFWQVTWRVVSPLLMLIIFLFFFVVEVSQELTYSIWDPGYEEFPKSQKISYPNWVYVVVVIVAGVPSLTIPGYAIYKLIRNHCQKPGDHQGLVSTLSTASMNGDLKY
T1 sequence (Q9HBJ8 15-222 partner): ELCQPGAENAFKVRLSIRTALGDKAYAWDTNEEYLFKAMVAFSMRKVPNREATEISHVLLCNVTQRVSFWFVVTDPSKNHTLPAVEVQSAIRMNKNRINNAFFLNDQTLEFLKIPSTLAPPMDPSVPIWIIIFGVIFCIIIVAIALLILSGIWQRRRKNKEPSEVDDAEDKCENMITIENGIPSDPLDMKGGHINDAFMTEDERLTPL
In short: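 CHO cells induced overnight with doxycycline to express human SLC6A19 plus TMEM27; 20 min preincubation with compound (10-point 2-fold series, duplicate) at 37 °C in HEPES buffer pH 7.2, then 20 min with 13C6,15N-isoleucine. Intracellular label quantified by RapidFire MS against 13C-leucine standard; positive control defined 100% inhibition.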

[2] = target: T1, human SLC6A19 and TMEM27; experiment: Radiolabelled (3H) leucine uptake in CHO cells with doxycycline-inducible expression of human SLC6A19 and TMEM27 (Example B-1); type: cell-based; details: CHO cells with doxycycline-inducible expression of human SLC6A19 and TMEM27, read-out: SLC6A19_Radioligand Uptake Assay IC50
In short: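 CHO cells were induced with doxycycline for 18 h at 37 °C, washed in HBSS, then exposed to compounds for 1 h: 8-point, 3-fold dilutions in duplicate, 0.5% DMSO final. Uptake measured by scintillation counting after 2 h shaking. Activity normalized with positive control as 0% and DMSO as 100%.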

Row | Compound | IC50 [1] [nM] | IC50 [2] [nM]
1 | O=C(NCc1cc2cc(F)c(NCc3ccon3)cc2[nH]1)N1CCC1 [Compound 470, N-((5-fluoro-6-((isoxazol-3-ylmethyl)amino)-1H-indol-2-yl)methyl)azetidine-1-carboxamide] | 1820 | 1310
2 | CN(Cc1cn[nH]c1)C(=O)NCc1cc2ccc(OCc3ccon3)cc2[nH]1 [Compound 627, 1-((1H-pyrazol-4-yl)methyl)-3-((6-(isoxazol-3-ylmethoxy)-1H-indol-2-yl)methyl)-1-methylurea] | 12100 | > 8730
3 | O=C(NCc1cc2cc(Cl)c(OCc3cscn3)cc2[nH]1)N1CCCC1 [Compound 82, N-((5-chloro-6-(thiazol-4-ylmethoxy)-1H-indol-2-yl)methyl)pyrrolidine-1-carboxamide] | 45 | 149
4 | Cc1cc(COc2cc3[nH]c(CNC(=O)C4(C)CC4)cc3cc2C(F)(F)F)no1 [Compound 58, 1-methyl-N-((6-((5-methylisoxazol-3-yl)methoxy)-5-(trifluoromethyl)-1H-indol-2-yl)methyl)cyclopropanecarboxamide] | 28 | 162
5 | Cc1nc(COc2cc3[nH]c(CNC(=O)N4CCCC4)cc3cc2Cl)co1 [Compound 411, N-((5-chloro-6-((2-methyloxazol-4-yl)methoxy)-1H-indol-2-yl)methyl)pyrrolidine-1-carboxamide] | 217 | 313
6 | Cc1cc2cc(CNC(=O)N3CCC3)[nH]c2cc1OCc1cscn1 [Compound 528, N-((5-methyl-6-(thiazol-4-ylmethoxy)-1H-indol-2-yl)methyl)azetidine-1-carboxamide] | 292 | 278
7 | CCC(=O)NCc1cc2cc(F)c(OCc3coc(C)n3)cc2[nH]1 [Compound 550, N-((5-fluoro-6-((2-methyloxazol-4-yl)methoxy)-1H-indol-2-yl)methyl)propionamide] | 1040 | 552
8 | Cc1cc(COc2cc3[nH]c(CNC(=O)C4(C(F)(F)F)CC4)cc3cc2Cl)no1 [Compound 125, N-((5-chloro-6-((5-methylisoxazol-3-yl)methoxy)-1H-indol-2-yl)methyl)-1-(trifluoromethyl)cyclopropane-1-carboxamide] | 145 | 198
9 | CC1(C(=O)NCc2cc3cc(C(F)F)c(OCc4cscn4)cc3[nH]2)CC1 [Compound 645, N-((5-(difluoromethyl)-6-(thiazol-4-ylmethoxy)-1H-indol-2-yl)methyl)-1-methylcyclopropane-1-carboxamide] | 524 | 955
10 | CC1(C(=O)NCc2cc3ccc(OCc4cc(C(F)F)on4)cc3[nH]2)CC1 [Compound 97, N-((6-((5-(difluoromethyl)isoxazol-3-yl)methoxy)-1H-indol-2-yl)methyl)-1-methylcyclopropane-1-carboxamide] | 909 | 421
11 | O=C(NCc1cc2cc(Cl)c(OCc3ccccn3)cc2[nH]1)C1CC1 [Compound 503, N-((5-chloro-6-(pyridin-2-ylmethoxy)-1H-indol-2-yl)methyl)cyclopropanecarboxamide] | 66.7 | 317
12 | O=C(NCc1cc2cc(Cl)c(OCc3cscn3)cc2[nH]1)N1CCC1 [Compound 81, N-((5-chloro-6-(thiazol-4-ylmethoxy)-1H-indol-2-yl)methyl)azetidine-1-carboxamide] | 166 | 150
13 | O=C(NCc1cc2cc(Cl)c(OCc3cscn3)cc2[nH]1)C1(F)CC1 [Compound 231, N-((5-chloro-6-(thiazol-4-ylmethoxy)-1H-indol-2-yl)methyl)-1-fluorocyclopropane-1-carboxamide] | 49.3 | 139
14 | CC(C)C(=O)NCc1cc2cc(Cl)c(OCc3cscn3)cc2[nH]1 [Compound 145, N-((5-chloro-6-(thiazol-4-ylmethoxy)-1H-indol-2-yl)methyl)isobutyramide] | 43 | 73
15 | Cn1ncc(COc2cc3[nH]c(CNC(=O)N4CCC4)cc3cc2F)n1 [Compound 409, N-((5-fluoro-6-((2-methyl-2H-1,2,3-triazol-4-yl)methoxy)-1H-indol-2-yl)methyl)azetidine-1-carboxamide] | 2290 | 1180
16 | O=C(NCc1cc2cc(Cl)c(OCc3cccc(F)n3)cc2[nH]1)C1CC1 [Compound 499, N-((5-chloro-6-((6-fluoropyridin-2-yl)methoxy)-1H-indol-2-yl)methyl)cyclopropanecarboxamide] | 55.4 | 213
17 | CC1(C(=O)NCc2cc3cc(F)c(OCc4ccc5ccoc5c4)cc3[nH]2)CC1 [Compound 460, N-((6-(benzofuran-6-ylmethoxy)-5-fluoro-1H-indol-2-yl)methyl)-1-methylcyclopropane-1-carboxamide] | 732 | 1360
18 | Cc1ncc(COc2cc3[nH]c(CNC(=O)C4(C)CC4)cc3cc2F)s1 [Compound 13, N-((5-fluoro-6-((2-methylthiazol-5-yl)methoxy)-1H-indol-2-yl)methyl)-1-methylcyclopropane-1-carboxamide] | 764 | 637

Further lines, results first:

Row | IC50 [1] [nM] | IC50 [2] [nM] | Compound
19 | 51.8 | 145 | CC1(C(=O)NCc2cc3cc(Cl)c(CCn4cccn4)cc3[nH]2)CC1 [Compound 590, N-((6-(2-(1H-pyrazol-1-yl)ethyl)-5-chloro-1H-indol-2-yl)methyl)-1-methylcyclopropane-1-carboxamide]
20 | 344 | 785 | CC1(C(=O)NCc2cc3cc(CC(F)(F)F)c(OCc4cscn4)cc3[nH]2)CC1 [Compound 648, 1-methyl-N-((6-(thiazol-4-ylmethoxy)-5-(2,2,2-trifluoroethyl)-1H-indol-2-yl)methyl)cyclopropane-1-carboxamide]
21 | 58 | 133 | CC1(C(=O)NCc2cc3cc(Cl)c(OCc4cccc(F)n4)cc3[nH]2)CC1 [Compound 32, N-((5-chloro-6-((6-fluoropyridin-2-yl)methoxy)-1H-indol-2-yl)methyl)-1-methylcyclopropane-1-carboxamide]
22 | 217 | 326 | CC1(C(=O)NCc2cc3cc(CC(F)(F)F)c(OCc4ccon4)cc3[nH]2)CC1 [Compound 649, N-((6-(isoxazol-3-ylmethoxy)-5-(2,2,2-trifluoroethyl)-1H-indol-2-yl)methyl)-1-methylcyclopropane-1-carboxamide]
23 | 113 | 156 | COc1cc2cc(CNC(=O)C3(C)CC3)[nH]c2cc1CCc1ccon1 [Compound 630, N-((6-(2-(isoxazol-3-yl)ethyl)-5-methoxy-1H-indol-2-yl)methyl)-1-methylcyclopropane-1-carboxamide]
24 | > 2050 | 1470 | CC1(C(=O)NCc2cc3cc(Cl)c(OCc4cn5ccccc5n4)cc3[nH]2)CC1 [Compound 632, N-((5-chloro-6-(imidazo[1,2-a]pyridin-2-ylmethoxy)-1H-indol-2-yl)methyl)-1-methylcyclopropane-1-carboxamide]
25 | 424 | 430 | Cn1ncc(COc2cc3[nH]c(CNC(=O)C4(C)CC4)cc3cc2F)n1 [Compound 496, N-((5-fluoro-6-((2-methyl-2H-1,2,3-triazol-4-yl)methoxy)-1H-indol-2-yl)methyl)-1-methylcyclopropane-1-carboxamide]
26 | 46 | 152 | CC1(C(=O)NCc2cc3cc(Cl)c(OCc4cccs4)cc3[nH]2)CC1 [Compound 65, N-((5-chloro-6-(thiophen-2-ylmethoxy)-1H-indol-2-yl)methyl)-1-methylcyclopropane-1-carboxamide]
27 | 89.1 | 223 | CC1(C(=O)NCc2cc3cc(F)c(OCc4cccc(F)n4)cc3[nH]2)CC1 [Compound 327, N-((5-fluoro-6-((6-fluoropyridin-2-yl)methoxy)-1H-indol-2-yl)methyl)-1-methylcyclopropane-1-carboxamide]
28 | 78 | 148 | CC1(C(=O)NCc2cc3cc(Cl)c(OCc4cnsc4)cc3[nH]2)CC1 [Compound 69, N-((5-chloro-6-(isothiazol-4-ylmethoxy)-1H-indol-2-yl)methyl)-1-methylcyclopropane-1-carboxamide]
